Tests used:
[1] = detoxification of alpha, beta-unsaturated carbonyl compounds; details: compared with L-carnosine
[2] = distribution in the rat after oral administration; assay type: in vivo
[3] = pharmacokinetic studies on laboratory animals monitoring plasma carnosine content by liquid chromatography-ESI triple quadrupole mass spectrometry; assay type: in vivo

Structure (SMILES): NCCC(=O)N[C@H](Cc1c[nH]cn1)C(=O)O [D-carnosine, β-alanyl-D-histidine]
- detoxification of the alpha, beta-unsaturated carbonyl compounds [1]: performs the same detoxification
- distribution in the lung [2]: distributed in the lung
- gastrointestinal absorption [3]: poor gastrointestinal absorption
